# In publication PMC5458052 (Nature Communications, 2017):
# “And” between values parts separate entries of the source, which are not always exact repeats. Equal entries are not always repeated. Where two headings read alike, the source gives them in different places.
# Assays:
# [1] = Rat PK iv 1 mg/kg (Chem Partners); settings: in vivo
# [2] = Metabolic stability in dog liver microsomes; assay type: in vitro ADME; settings: substrate 1 µM
# [3] = Metabolic stability and metabolite profile in rat liver microsomes; assay type: in vitro ADME
# [4] = Rat blood stability in vitro; settings: male, Sprague Dawley, freshly collected whole blood
# Cav1.2 channel = Cav1.2 channel (Homo sapiens, UniProt Q13936); assay: Cav1.2 electrophysiology assay (IonWorks HT, CHO cells); assay type: cell-based; settings: at >100 μM
# Cav1.2 channel, sequence (Q13936 whole entry): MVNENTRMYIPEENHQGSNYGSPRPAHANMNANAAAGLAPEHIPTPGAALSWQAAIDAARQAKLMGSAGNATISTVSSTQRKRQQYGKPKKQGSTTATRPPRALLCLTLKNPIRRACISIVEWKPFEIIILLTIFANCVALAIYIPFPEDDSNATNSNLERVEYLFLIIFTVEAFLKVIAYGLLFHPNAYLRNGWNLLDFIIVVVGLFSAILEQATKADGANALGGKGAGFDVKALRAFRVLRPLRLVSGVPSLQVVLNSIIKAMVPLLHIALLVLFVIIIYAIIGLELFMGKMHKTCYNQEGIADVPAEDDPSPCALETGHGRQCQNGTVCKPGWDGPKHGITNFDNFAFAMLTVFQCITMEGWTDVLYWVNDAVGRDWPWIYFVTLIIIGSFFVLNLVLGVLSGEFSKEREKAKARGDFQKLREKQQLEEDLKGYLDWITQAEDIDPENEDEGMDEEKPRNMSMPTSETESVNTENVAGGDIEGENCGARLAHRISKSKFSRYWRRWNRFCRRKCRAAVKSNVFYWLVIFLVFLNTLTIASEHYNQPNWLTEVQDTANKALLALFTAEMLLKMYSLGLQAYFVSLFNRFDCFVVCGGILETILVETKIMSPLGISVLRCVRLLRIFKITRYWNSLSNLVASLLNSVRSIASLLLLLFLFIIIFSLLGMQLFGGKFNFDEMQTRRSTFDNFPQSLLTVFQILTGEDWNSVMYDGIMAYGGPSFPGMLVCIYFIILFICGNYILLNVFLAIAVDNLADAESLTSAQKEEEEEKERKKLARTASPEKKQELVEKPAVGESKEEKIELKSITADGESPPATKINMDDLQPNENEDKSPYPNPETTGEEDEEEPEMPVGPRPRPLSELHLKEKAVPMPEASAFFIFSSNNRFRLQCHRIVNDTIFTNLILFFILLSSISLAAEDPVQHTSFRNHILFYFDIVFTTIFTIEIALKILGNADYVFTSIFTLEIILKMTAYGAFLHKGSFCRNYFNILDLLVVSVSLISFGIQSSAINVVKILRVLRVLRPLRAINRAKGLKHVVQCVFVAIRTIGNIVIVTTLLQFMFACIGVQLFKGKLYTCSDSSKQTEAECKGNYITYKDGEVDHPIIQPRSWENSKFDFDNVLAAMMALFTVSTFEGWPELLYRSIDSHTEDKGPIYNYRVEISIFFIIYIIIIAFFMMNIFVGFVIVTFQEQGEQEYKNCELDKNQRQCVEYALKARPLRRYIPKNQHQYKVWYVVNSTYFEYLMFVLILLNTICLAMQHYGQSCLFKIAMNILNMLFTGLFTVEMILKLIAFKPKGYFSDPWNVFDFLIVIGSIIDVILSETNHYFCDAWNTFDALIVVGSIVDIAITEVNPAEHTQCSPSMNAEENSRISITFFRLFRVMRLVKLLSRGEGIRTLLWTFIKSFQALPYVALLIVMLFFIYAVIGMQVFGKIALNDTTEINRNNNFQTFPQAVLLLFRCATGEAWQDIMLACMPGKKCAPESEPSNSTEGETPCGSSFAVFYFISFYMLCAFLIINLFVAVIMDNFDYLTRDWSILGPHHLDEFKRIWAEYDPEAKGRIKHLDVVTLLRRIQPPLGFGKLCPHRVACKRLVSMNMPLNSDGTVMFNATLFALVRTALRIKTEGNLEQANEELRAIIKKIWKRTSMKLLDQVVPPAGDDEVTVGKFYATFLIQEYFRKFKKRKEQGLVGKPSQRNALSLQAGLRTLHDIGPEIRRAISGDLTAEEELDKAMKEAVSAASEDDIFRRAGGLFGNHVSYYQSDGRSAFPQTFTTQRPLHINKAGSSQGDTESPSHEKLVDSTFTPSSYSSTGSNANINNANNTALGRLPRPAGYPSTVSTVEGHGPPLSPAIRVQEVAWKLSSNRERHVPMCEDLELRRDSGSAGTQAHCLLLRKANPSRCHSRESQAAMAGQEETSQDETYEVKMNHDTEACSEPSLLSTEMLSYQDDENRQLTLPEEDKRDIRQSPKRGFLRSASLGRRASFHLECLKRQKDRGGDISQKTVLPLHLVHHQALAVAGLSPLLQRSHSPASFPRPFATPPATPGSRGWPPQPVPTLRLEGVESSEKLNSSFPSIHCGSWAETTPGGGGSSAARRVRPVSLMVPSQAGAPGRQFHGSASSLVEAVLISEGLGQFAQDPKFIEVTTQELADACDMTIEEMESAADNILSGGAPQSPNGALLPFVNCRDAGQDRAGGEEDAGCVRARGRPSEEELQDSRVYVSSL
# Cav1.2 channel, sequence (Q08289 whole entry partner): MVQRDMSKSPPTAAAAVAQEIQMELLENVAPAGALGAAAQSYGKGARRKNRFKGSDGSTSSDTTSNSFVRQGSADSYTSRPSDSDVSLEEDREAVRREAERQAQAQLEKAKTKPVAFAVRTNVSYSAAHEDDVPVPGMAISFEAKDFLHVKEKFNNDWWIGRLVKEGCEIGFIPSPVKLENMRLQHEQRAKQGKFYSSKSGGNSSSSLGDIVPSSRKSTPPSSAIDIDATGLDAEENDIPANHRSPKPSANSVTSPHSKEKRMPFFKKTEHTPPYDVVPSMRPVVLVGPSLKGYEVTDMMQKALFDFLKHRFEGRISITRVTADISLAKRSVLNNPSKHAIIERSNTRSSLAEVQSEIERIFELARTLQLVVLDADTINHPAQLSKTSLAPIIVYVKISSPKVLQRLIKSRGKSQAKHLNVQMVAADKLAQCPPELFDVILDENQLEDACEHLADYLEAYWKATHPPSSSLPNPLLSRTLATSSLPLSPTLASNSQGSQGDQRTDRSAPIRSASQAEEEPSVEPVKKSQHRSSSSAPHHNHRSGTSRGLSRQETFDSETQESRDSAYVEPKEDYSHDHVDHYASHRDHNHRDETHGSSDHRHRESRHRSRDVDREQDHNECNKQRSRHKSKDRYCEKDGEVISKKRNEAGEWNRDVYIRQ
# Cav1.2 channel, sequence (P54289 25-946 partner limits assumed): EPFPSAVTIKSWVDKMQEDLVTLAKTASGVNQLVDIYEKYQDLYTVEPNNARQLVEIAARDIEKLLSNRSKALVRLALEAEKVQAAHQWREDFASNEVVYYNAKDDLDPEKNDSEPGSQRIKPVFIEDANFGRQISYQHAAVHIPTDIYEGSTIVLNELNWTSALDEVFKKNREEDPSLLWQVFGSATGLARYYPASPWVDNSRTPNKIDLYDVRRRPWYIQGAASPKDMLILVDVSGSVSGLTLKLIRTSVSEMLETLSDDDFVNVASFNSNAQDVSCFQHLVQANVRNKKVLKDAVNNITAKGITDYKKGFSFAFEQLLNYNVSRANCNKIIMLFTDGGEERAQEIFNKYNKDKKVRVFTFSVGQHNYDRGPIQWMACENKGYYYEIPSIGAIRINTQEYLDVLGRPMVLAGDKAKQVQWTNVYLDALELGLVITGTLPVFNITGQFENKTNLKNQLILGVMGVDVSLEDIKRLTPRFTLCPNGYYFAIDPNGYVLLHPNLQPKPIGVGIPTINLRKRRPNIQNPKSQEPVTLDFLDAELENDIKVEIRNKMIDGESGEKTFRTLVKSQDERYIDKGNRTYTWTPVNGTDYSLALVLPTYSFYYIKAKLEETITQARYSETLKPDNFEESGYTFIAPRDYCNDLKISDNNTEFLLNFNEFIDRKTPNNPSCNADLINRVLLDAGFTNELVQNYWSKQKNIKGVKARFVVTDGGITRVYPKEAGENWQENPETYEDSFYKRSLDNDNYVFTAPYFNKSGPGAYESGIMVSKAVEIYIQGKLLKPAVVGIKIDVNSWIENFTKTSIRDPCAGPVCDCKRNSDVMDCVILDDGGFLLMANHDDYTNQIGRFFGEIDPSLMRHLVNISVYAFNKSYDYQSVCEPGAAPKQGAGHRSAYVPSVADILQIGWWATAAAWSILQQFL
# Cav1.2 channel, sequence (P54289 947-1103 partner limits assumed): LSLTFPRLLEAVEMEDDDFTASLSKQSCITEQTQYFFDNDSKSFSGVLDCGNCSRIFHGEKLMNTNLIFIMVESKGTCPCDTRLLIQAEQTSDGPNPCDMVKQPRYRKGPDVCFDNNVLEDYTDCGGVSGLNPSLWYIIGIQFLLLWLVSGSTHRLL
# P. falciparum 3D7 = assay: In vitro antimalarial activity, drug sensitivity testing (3D7); assay type: cell-based; settings: Plasmodium falciparum
# CYP1A2 = CYP1A2 (Homo sapiens, UniProt P05177); assay: Cytochrome P450 inhibition CYP1A2
# CYP1A2, sequence (P05177 whole entry): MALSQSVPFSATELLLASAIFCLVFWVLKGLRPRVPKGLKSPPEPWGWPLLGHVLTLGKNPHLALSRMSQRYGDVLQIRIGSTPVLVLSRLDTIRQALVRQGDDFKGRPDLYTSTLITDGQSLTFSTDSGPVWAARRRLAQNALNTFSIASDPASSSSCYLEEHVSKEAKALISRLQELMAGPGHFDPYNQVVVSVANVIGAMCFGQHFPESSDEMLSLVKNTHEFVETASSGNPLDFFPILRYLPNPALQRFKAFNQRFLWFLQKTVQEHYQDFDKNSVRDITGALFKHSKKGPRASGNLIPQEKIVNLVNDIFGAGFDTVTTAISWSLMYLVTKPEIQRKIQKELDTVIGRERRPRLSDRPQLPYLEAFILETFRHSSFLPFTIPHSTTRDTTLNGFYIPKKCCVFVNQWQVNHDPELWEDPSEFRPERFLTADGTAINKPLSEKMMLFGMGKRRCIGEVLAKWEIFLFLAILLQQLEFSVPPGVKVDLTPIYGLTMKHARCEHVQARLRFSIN
# CYP2D6 = CYP2D6 (Homo sapiens, UniProt P10635); assay: Cytochrome P450 inhibition CYP2D6; assay type: in vitro ADME
# [5] = Human PK prediction by allometric scaling; settings: allometric scaling from rat parameters
# [6] = tested on: P. falciparum K13 wild-type and mutant lines (Cam3.II, V1/S); assay: microbe, parasite or virus in culture; assay type: cell-based, Plasmodium falciparum; settings: read-out: IC50 Mean
# [7] = tested on: P. falciparum strains (sensitive and resistant); assay: microbe, parasite or virus in culture; assay type: cell-based; settings: Plasmodium falciparum
# CYP2C19 = CYP2C19 (Homo sapiens, UniProt P33261); assay: Cytochrome P450 inhibition CYP2C19; assay type: in vitro ADME
# CYP2C19, sequence (P33261 whole entry): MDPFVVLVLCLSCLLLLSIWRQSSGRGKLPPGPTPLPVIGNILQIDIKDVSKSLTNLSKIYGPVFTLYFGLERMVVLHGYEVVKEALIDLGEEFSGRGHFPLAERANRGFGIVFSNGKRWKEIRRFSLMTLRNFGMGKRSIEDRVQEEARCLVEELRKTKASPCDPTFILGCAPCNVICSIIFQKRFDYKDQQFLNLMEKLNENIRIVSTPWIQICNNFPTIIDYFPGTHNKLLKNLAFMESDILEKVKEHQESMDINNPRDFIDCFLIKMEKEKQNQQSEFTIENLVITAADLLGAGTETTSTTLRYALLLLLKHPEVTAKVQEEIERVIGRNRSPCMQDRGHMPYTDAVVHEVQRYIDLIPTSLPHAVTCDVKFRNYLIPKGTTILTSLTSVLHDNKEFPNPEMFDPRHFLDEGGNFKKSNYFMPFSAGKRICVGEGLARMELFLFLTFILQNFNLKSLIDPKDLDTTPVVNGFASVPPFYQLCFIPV
# P. berghei [8] = assay: Peters' standard 4-day suppressive test
# [9] = tested on: P. vivax clinical field isolates; assay: microbe, parasite or virus in culture; assay type: cell-based; settings: Plasmodium vivax, read-out: Median IC50
# [10] = Mouse PK, compartmental analysis
# [11] = In vitro intrinsic clearance, rat liver microsomes (Chem Partners); assay type: in vitro ADME; settings: rat (R) liver microsomes
# [12] = tested on: P. falciparum clinical field isolates; assay: microbe, parasite or virus in culture; assay type: cell-based; settings: Plasmodium falciparum, read-out: Median IC50
# in vivo = settings: Sprague-Dawley, rat; for AUC(0-t) / Cmax: po
# [13] = tested on: P. falciparum strain 3D7A; assay: In vitro parasite reduction ratio (PRR) assay; assay type: cell-based, Plasmodium falciparum
# Mouse micronucleus test = settings: in vivo
# [14] = rat, in vivo
# [15] = In vitro intrinsic clearance, human liver microsomes (Chem Partners); assay type: in vitro ADME; settings: human (H) liver microsomes
# [16] = tested on: African variant G6PD deficient human red blood cells (huRBC); settings: 7 days post-treatment; E209 up to 50 mg kg^−1 day^−1 for 3 days; PQ 25 mg/kg/day for 3 days
# [17] = Metabolic stability and metabolite profile in mouse liver microsomes; assay type: in vitro ADME
# [18] = tested on: Late stage gametocytes; oocysts in Anopheles stephensi mosquitoes; assay: whole plant or invertebrate; assay type: cell-based
# [19] = Single rising oral dose MTD study in rats; settings: both sexes, Sprague-Dawley, rat, in vivo; single oral administration; read-out: maximum-tolerated dose (MTD)
# Sigma 1 receptors = biological target: T1, Sigma 1 receptors (Homo sapiens, UniProt Q99720); assay: CEREP radioligand binding screen, Sigma 1
# T1 construct: CEREP
# [20] = biological target: T2, cardiac IKr (hERG) channel (Homo sapiens, UniProt Q12809); assay: hERG electrophysiology assay (IonWorks HT, CHO cells); assay type: cell-based
# T2 construct: expressed in transfected cells; host or cells: CHO cells
# [21] = Mammalian cell cytotoxicity; assay type: cell-based; settings: human; HeLa cells, n=3; read-out: cytotoxicity median IC50
# [22] = tested on: P. falciparum lab lines FC27 and K1; assay: microbe, parasite or virus in culture; assay type: cell-based; settings: Plasmodium falciparum, median of 3 independent experiments
# [23] = Dog PK, compartmental analysis
# P. berghei [24] = tested on: P. berghei; set-up: species or system Plasmodium berghei
# Nav1.5 channel = Nav1.5 channel (Homo sapiens, UniProt Q14524); assay: Nav1.5 electrophysiology assay (IonWorks HT, CHO cells); assay type: cell-based; settings: at >100 μM
smiles,measurement,setting,value
FC1CCN(CCOc2ccc(C3CCC4(CC3)OOC3(OO4)C4CC5CC(C4)CC3C5)cc2)CC1 (centres unmarked) [Compound E209],clearance,[1],5.1 mL/min/kg
same,Microsome-Predicted EH,[2]; n=1,0.38
same,half-life at 1 µM,"[2]; n=1, read-out: Degradation half-life",2.88 h
same,microsomal CLint at 1 µM,"[2]; n=1, read-out: In vitro CLint",10 µL/min/mg
same,% Substrate Consumed,"[3]; rat liver microsomes with NADPH, 60 minutes",54%
same,Microsome-Predicted EH,"[3]; rat liver microsomes, substrate 1 µM",0.48
same,half-life at 1 µM,"[3]; rat liver microsomes, substrate 1 µM, read-out: Degradation half-life",0.8 h
same,microsomal CLint at 1 µM,"[3]; rat liver microsomes, substrate 1 µM, read-out: In vitro CLint",36 µL/min/mg
same,Microsome-Predicted EH,"[3]; rat liver microsomes, substrate 5 µM",0.45
same,half-life at 5 µM,"[3]; rat liver microsomes, substrate 5 µM, read-out: Degradation half-life",0.9 h
same,microsomal CLint at 5 µM,"[3]; rat liver microsomes, substrate 5 µM, read-out: In vitro CLint",32 µL/min/mg
same,half-life at 1 µM,[4],13 h
same,inhibitory activity,Cav1.2 channel,no inhibitory activity
same,IC50,P. falciparum 3D7,5.1 ± 0.81 nM
same,IC50,CYP1A2,> 20000 nM
same,IC50,CYP2D6,> 20000 nM
same,Absorption rate constant Ka,[5],0.31 ^† h^−1
same,"Central clearance, CL",[5],0.41 l^ h^−1 kg^−1
same,"Inter-compartmental clearance 1, Q1",[5],7.5 mL/min/kg
same,"Inter-compartmental clearance 2, Q2",[5],0.333 mL/min/kg
same,IC50,"[6]; Plasmodium falciparum, 72 h",8.71 nM
same,IC50,[6],7.6 nM and 7.51 nM and 8.46 nM and 7.76 nM and 7.81 nM
same,IC50,"[7]; DD2, strain Dd2 (chloroquine resistant), mean ± SD n=3",7.7 ± 1.5 nM
same,IC50,"[7]; HB3, strain HB3 (chloroquine sensitive), mean ± SD n=3",4.2 ± 0.8 nM
same,IC50,"[7]; NF54, strain NF54 (chloroquine sensitive), mean ± SD n=3",5.2 ± 1 nM
same,IC50,"[7]; TM90C2B, strain TM90C2B (chloroquine resistant), mean ± SD n=3",7.3 ± 1.4 nM
same,IC50,"[7]; read-out: mean IC50 range, panel of 10 sensitive and multidrug-resistant P. falciparum isolates",2.9 to 14 nM
same,IC50,"[7]; strain 7G8 (chloroquine resistant), mean ± SD n=3",2.9 ± 0.6 nM
same,IC50,"[7]; strain D6 (chloroquine sensitive), mean ± SD n=3",8.5 ± 1.6 nM
same,IC50,"[7]; strain FCB (chloroquine resistant), mean ± SD n=3",14 ± 2.7 nM
same,IC50,"[7]; strain K1 (chloroquine resistant), mean ± SD n=3",4.2 ± 0.8 nM
same,IC50,"[7]; strain V1/S (chloroquine resistant), mean ± SD n=3",4.2 ± 0.8 nM
same,IC50,CYP2C19,> 20000 nM
same,parasite clearance,"P. berghei [8]; given orally, 4-day suppressive test",complete parasite clearance
same,estimated ED50,"P. berghei [8]; oral, after three doses, P. berghei infected mice",4 mg/kg
same,IC50,[9],10.5 nM
same,Absorption rate constant Ka,[10]; PO 10 mg kg^−1,0.79 h⁻¹
same,bioavailability,"[10]; female, Swiss Outbred, plasma, oral, 10 mg kg^−1",82%
same,clearance,"[10]; female, Swiss Outbred, plasma, other: intravenous and oral, fitted together",71.7 mL/min/kg
same,CLint scaled,[11],70 mL/min/kg
same,IC50,[12],15.7 nM
same,NOAEL,in vivo; female,50 mg/kg/day
same,AUC(0-t),"in vivo; female, 50 mg/kg",14800 ng·h/mL
same,Cmax,"in vivo; female, 50 mg/kg",1070 ng/mL
same,NOAEL,in vivo; male,100 mg/kg/day
same,AUC(0-t),"in vivo; male, 100 mg/kg",19600 ng·h/mL
same,Cmax,"in vivo; male, 100 mg/kg",1200 ng/mL
same,Lag phase,[13]; 10 × IC50,0 h
same,Log PRR,[13]; 10 × IC50,> 4.8
same,Slope,[13]; 10 × IC50,−0.098
same,PCT 99.9 %,"[13]; 10 × IC50, parasite clearance time",< 24 h
same,mouse micronucleus test result,Mouse micronucleus test,negative
same,finding at 100 mg kg^−1,[14],body weight loss
same,tolerability,[14],not tolerated
same,CLint scaled,[15],58 mL/min/kg
same,loss of huRBC,[16],did not show a significant drug-dependent loss of huRBC
same,% Substrate Consumed,"[17]; mouse liver microsomes with NADPH, 60 minutes",44%
same,Microsome-Predicted EH,"[17]; mouse liver microsomes, substrate 1 µM",0.22
same,half-life at 1 µM,"[17]; mouse liver microsomes, substrate 1 µM, read-out: Degradation half-life",2.2 h
same,microsomal CLint at 1 µM,"[17]; mouse liver microsomes, substrate 1 µM, read-out: In vitro CLint",13 µL/min/mg
same,Microsome-Predicted EH,"[17]; mouse liver microsomes, substrate 5 µM",0.25
same,half-life at 5 µM,"[17]; mouse liver microsomes, substrate 5 µM, read-out: Degradation half-life",2.48 h
same,microsomal CLint at 5 µM,"[17]; mouse liver microsomes, substrate 5 µM, read-out: In vitro CLint",17 µL/min/mg
same,transmission-blocking activity (percentage of mosquitoes with no observed oocysts),[18],~60% and 90%
same,IC50,"[18]; Anopheles stephensi, read-out: IC50 (reduction in oocyst mean intensity)",14.5 nM
same,MTD,[19],300 mg/kg
same,IC50,Sigma 1 receptors,~200 nM
same,IC50,[20],> 3500 nM
same,IC50,[21],2850 nM
same,IC50,"[22]; K1, FC27 (CQ S) lab line",20.7 nM
same,IC50,"[22]; K1, K1 (CQ R) lab line",31.8 nM
same,Absorption rate constant Ka,[23]; PO 5 mg kg^−1,0.33 h⁻¹
same,bioavailability,"[23]; male, Beagle, plasma, oral, 5 mg kg^−1",40%
same,clearance,"[23]; male, Beagle, plasma, other: intravenous and oral, fitted together",18.3 mL/min/kg
same,In vivo (Pb) MSD (days) at 1 x 30 mg/kg,P. berghei [24],"26.3 days and 25.0 (15, 30, 30) (2 cures) days"
same,cure rate,P. berghei [24]; in vivo,66%
same,inhibitory activity,Nav1.5 channel,no inhibitory activity
